Bounds are passed on as bounds.

For one assay, the target named is T1, NIK (Homo sapiens, UniProt Q99558).
T1 construct: Both assays utilize a truncated form of NIK containing only the catalytic domain; made in house; host or cells: baculovirus expression system (insect cells implied)
T1 sequence (Q99558 400-655 limits assumed): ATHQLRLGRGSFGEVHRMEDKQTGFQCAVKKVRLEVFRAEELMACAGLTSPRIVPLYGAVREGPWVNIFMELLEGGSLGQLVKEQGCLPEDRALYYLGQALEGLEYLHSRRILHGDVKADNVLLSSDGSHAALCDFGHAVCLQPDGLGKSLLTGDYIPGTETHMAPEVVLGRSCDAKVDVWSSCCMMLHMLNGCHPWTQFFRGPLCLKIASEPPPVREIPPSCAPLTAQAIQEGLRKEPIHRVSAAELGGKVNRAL
Kind of assay: homogenous time resolved fluorescence (HTRF) assay for NIK Ki measurement. Type of assay: biochemical.
Conditions: not given
As for the experimental part: Two formats of biochemical assays are implemented: (1) chemiluminescent (CL) assay for NIK IC50 determination; (2) homogenous time resolved fluorescence (HTRF) assay for NIK Ki measurement. […] The NIK proteins are purified with baculovirus expression system and further biotinylated with N-hydroxysuccinamide biotin ester (Sigma). […] The reaction mixtures are then immobilized on a Streptavidin-coated plate (Pierce). […] For the HTRF assay, 10 nM of enzyme are incubated with compounds in the presence of 20, 100, 200, or 500 μM of ATP in a buffer with 20 mM of Hepes pH7.5, 20 mM of MgCl2, 0.2% of Tween 20 and 1 mM of DTT at room temperature for 2 hours.
A general note: In TR-FRET formats the signal depends on donor and acceptor labels being close together.
The term Ki denotes a dissociation constant, usually derived from enzyme kinetics or from competition with a known ligand. As for `Cc1cnc(C(C)(O)C#Cc2ccc3c(c2)N(c2ccnc(N)n2)CC3)o1` (stereo not shown) [Example 316, 4-(1-(2-Amino-4-pyrimidinyl)-2,3-dihydro-1H-indol-6-yl)-2-(5-methyl-1,3-oxazol-2-yl)-3-Butyn-2-ol], the inhibition constant Ki was under 1000 nM.

Staying with this assay, now noted: truncated NIK (catalytic domain only), autophosphorylation; 10 nM enzyme; 20, 100, 200 or 500 μM ATP; room temperature, 2 hours; read-out: Ki activity in the homogenous time resolved fluorescence (HTRF) assay for NIK.
As to `CCN(CC)C(=O)Cn1cc(-c2nc(N)ncc2Cl)c2cc(C#CC3(O)CCCC3)ccc21` [Example 129, 2-(3-(2-amino-5-chloropyrimidin-4-yl)-5-(2-(1-hydroxycyclopentyl)ethynyl)-1H-indol-1-yl)-N,N-diethylacetamide], the inhibitory constant (Ki) was under 1000 nM.

On to `CC1(CO)CN(c2nc(N)ncc2Cl)c2cc(C#CC3(O)CCCC3)ccc21` (single isomer, unassigned) [Example 55, 1-(((3R*)-1-(2-amino-5-chloro-4-pyrimidinyl)-3-(hydroxymethyl)-3-methyl-2,3-dihydro-1H-indol-6-yl)ethynyl)cyclopentanol], for which the Ki was under 1000 nM. Same read-out and setting: as for `CC(O)(C#Cc1ccc2c(c1)N(c1ncncn1)CC21CCOCC1)c1nccs1` (stereo not shown) [Example 37, 2-(1,3-thiazol-2-yl)-4-(1-(1,3,5-triazin-2-yl)-1,2,2′,3′,5′,6′-hexahydrospiro[indole-3,4′-pyran]-6-yl)-3-butyn-2-ol], the figure is under 1000 nM; as for `Nc1ncc(Cl)c(-c2cn(CCN3CCOCC3)c3ccc(C#CC4(O)CCCCC4)cc23)n1` [Example 132, 1-(2-(3-(2-amino-5-chloropyrimidin-4-yl)-1-(2-morpholinoethyl)-1H-indol-5-yl)ethynyl)cyclohexanol], under 1000 nM.

Regarding `COCCN(C)C1CCn2c1c(-c1ccncn1)c1cc(C#CC(C)(O)c3nccs3)ccc12` (single isomer, unassigned) [Example 87, 4-((R*)-1-((2-methoxyethyl)(methyl)amino)-9-(pyrimidin-4-yl)-2,3-dihydro-1H-pyrrolo[1,2-a]indol-7-yl)-2-(thiazol-2-yl)but-3-yn-2-ol], the inhibition constant Ki was under 1000 nM.

`Cc1cc(C(C)(O)C#Cc2ccc(O[C@H]3CCOC3)c(Nc3nc(N)ncc3Cl)c2)no1` (stereo partly shown) [Example 156]: the inhibition constant Ki is under 1000 nM.

For `CN1Cc2cnc(N)nc2-c2c(n(C)c3ccc(C#CC4(O)CCCC4)cc23)C1=O` [Example 244, 2-Amino-1′-((1-hydroxycyclopentyl)ethynyl)-6,8-dimethyl-5,8-dihydropyrimido[4′,5′:5,6]azepino[3,4-b]indol-7(6H)-one], the Ki was under 1000 nM. On the same count and under the same terms, as for `CC(O)(C#Cc1ccc2c(c1)N(c1ccncc1)CC2(C)C)c1ncco1` (stereo not shown) [Example 307, 4-(3,3-Dimethyl-1-(4-pyridinyl)-2,3-dihydro-1H-indol-6-yl)-2-(1,3-oxazol-2-yl)-3-butyn-2-ol], the figure is under 1000 nM; as for `Cc1c[nH]c(C(C)(O)C#Cc2ccc3c(c2)N(c2nc(N)ncc2Cl)CC3(C)C)n1` (stereo not shown) [Example 79, 4-(1-(2-Amino-5-chloro-4-pyrimidinyl)-3,3-dimethyl-2,3-dihydro-1H-indol-6-yl)-2-(4-methyl-1H-imidazol-2-yl)-3-butyn-2-ol], under 1000 nM. In the case of `OC1(C#Cc2ccc3ccn(-c4ccnc(Nc5ccccc5)n4)c3c2)CCCC1` [Example 256, 1-((1-(2-(Phenylamino)-4-pyrimidinyl)-1H-indol-6-yl)ethynyl)cyclopentanol], the Ki was under 1000 nM. On the same count and under the same terms, with `CNc1nc(N2CC3(CCOCC3)c3ccc(C#CC4(O)CCCC4)cc32)c2nc[nH]c2n1` [Example 207, 1-((1-(2-(Methylamino)-9H-purin-6-yl)-1,2,2′,3′,5′,6′-hexahydrospiro[indole-3,4′-pyran]-6-yl)ethynyl)cyclopentanol] the figure was under 1000 nM; with `CC(C)(O)C#Cc1ccc2nc3c(n2c1)-c1nc(N)ncc1CCC3` [Example 250, 4-(2-Amino-6,7-dihydro-5H-pyrido[1″,2″:1′,2′]imidazo[4′,′:6,7]cyclohepta[1,2-d]pyrimidin-11-yl)-2-methyl-3-butyn-2-ol], under 1000 nM. In the case of `CC(O)(C#Cc1cccc(Oc2nc(N)ncc2Cl)c1)c1nccs1` (stereo not shown) [Example 315, 4-(3-((2-amino-5-chloro-4-pyrimidinyl)oxy)phenyl)-2-(1,3-thiazol-2-yl)-3-butyn-2-ol], the inhibitory constant (Ki) is under 1000 nM. In the case of `Cc1cc(C(C)(O)C#Cc2ccc3c(c2)N(c2ccnc(N)n2)CC3)c(C)o1` (stereo not shown) [Example 279, 4-(1-(2-Amino-4-pyrimidinyl)-2,3-dihydro-1H-indol-6-yl)-2-(2,5-dimethyl-3-furanyl)-3-Butyn-2-ol], the inhibitory constant (Ki) was in the range of 1000 to 30000 nM. Turning to `Nc1nccc(C2=CC3(CCOCC3)c3ccc(C#CC4(O)CCCC4)cc32)n1` [Example 220, 1-((3-(2-Amino-4-pyrimidinyl)-2′,3′,5′,6′-tetrahydrospiro[indene-1,4′-pyran]-5-yl)ethynyl)cyclopentanol], the Ki was under 1000 nM. On the same count and under the same terms, with `Nc1ncc(Cl)c(-c2cn(CCOCCOCCO)c3ccc(C#CC4(O)CCCC4)cc23)n1` [Example 130] the figure was under 1000 nM; with `C[C@@](O)(C#Cc1ccc2c(c1)N(c1nc(N)ncc1Cl)C[C@@]21CCOC1)c1nccs1` (relative stereo) [Example 200, (2R)-4-((3R*)-1′-(2-Amino-5-chloro-4-pyrimidinyl)-1′,2′,4,5-tetrahydrospiro[furan-3,3′-indol]-6′-yl)-2-(1,3-thiazol-2-yl)-3-butyn-2-ol], under 1000 nM.

With `Cc1cc([C@](C)(O)C#Cc2ccc3c(c2)N(c2nc(N)ncc2Cl)CC3)no1` (single isomer, unassigned) [Example 25], the inhibition constant Ki was under 1000 nM. Regarding `CC(O)(C#Cc1cccc(N(CCN2CCOCC2)c2ccncn2)n1)c1nccs1` (stereo not shown) [Example 175, 4-(6-((2-morpholinoethyl)(pyrimidin-4-yl)amino)pyridin-2-yl)-2-(thiazol-2-yl)but-3-yn-2-ol], the Ki is 1000 to 30000 nM. Take `CC(C)(C#Cc1ccc2c(c1)N(c1nc(N)ncc1Cl)CC2(C)CO)CO` (single isomer, unassigned) [Example 58, 4-((3S*)-1-(2-amino-5-chloro-4-pyrimidinyl)-3-(hydroxymethyl)-3-methyl-2,3-dihydro-1H-indol-6-yl)-2,2-dimethyl-3-Butyn-1-ol]: the Ki is under 1000 nM.

On to `CN1CCC2(C=C(c3nc(N)ncc3Cl)c3cc(C#CC4(O)CCCC4)ccc32)CC1` [Example 222, 1-((3-(2-Amino-5-chloro-4-pyrimidinyl)-1′-methylspiro[indene-1,4′-piperidin]-5-yl)ethynyl)cyclopentanol], for which the Ki was under 1000 nM. The same measure, in the same setting: as for `CC1(CO)CN(c2nc(N)nc3[nH]cnc23)c2cc(C#CC3(O)CCCC3)ccc21` (stereo not shown) [Example 74, 1-((1-(2-amino-9H-purin-6-yl)-3-(hydroxymethyl)-3-methyl-2,3-dihydro-1H-indol-6-yl)ethynyl)cyclopentanol], the figure is under 1000 nM; as for `CC1(C)CN(c2ccncc2)c2cc(C#C[C@@](C)(O)c3nccs3)ccc21` [Example 306, (2R)-4-(3,3-dimethyl-1-(4-pyridinyl)-2,3-dihydro-1H-indol-6-yl)-2-(1,3-thiazol-2-yl)-3-Butyn-2-ol], under 1000 nM; as for `C[C@@](O)(C#Cc1ccc2c(c1)N(c1nc(N)ncc1Cl)C[C@]21CCOC1)c1nccs1` (stereo in doubt) [Example 202, (2R)-4-((3S*)-1′-(2-Amino-5-chloro-4-pyrimidinyl)-1′,2′,4,5-tetrahydrospiro[furan-3,3′-indol]-6′-yl)-2-(1,3-thiazol-2-yl)-3-butyn-2-ol], under 1000 nM.

Values taken from US20110086834A1, “ALKYNYL ALCOHOLS AS KINASE INHIBITORS” (AMGEN INC., priority 2008, published 2011).
